From patent US8614333B2, “Acenaphtho heterocyclic compound and application thereof” (Dalian University of Technology, priority 2010, dated 2013)

Key:
Bcl-2 protein = Bcl-2 protein (Homo sapiens, UniProt P10415); assay: ELISA assay, competitive binding to Bcl-2 protein (biotin-Bim/streptavidin plate); conditions: method calculates average IC50, read-out: Bcl-2 binding constants
Experimental: (§1) The present inventors used fluorescence polarization assay to detect the bonding force between the protein and the compounds in a previous study (PCT/CN2010/075521). […] ELISA assay was used to detect the bonding force between the compounds and the protein in this application.
(§2) Biotinylated Bim peptide was diluted to 0.09 μg/mL in SuperBlock blocking buffer in PBS and incubated for 1.5 h in 96-well microtiter plates already coated with streptavidin to allow the formation of the complex between Biotin-Bim and streptavidin. All incubations were performed at room temperature unless otherwise noted. Each inhibitor was first dissolved in pure DMSO to obtain a 10 mM stock solution. For each tested inhibitor, different concentrations of the inhibitor were incubated with 20 nM His-tagged Mcl-1 protein in PBS for 1 h with a final DMSO concentration of 4%. The plates were washed three times with PBS containing 0.05% Tween-20. The inhibitor and protein mixture (100 μL) were transferred to the plate containing the biotin-Bim/streptavidin complex and incubated for 2 h. The plate was then washed as before and mouse anti-His antibody that conjugated with horseradish peroxidase was added into the wells and incubated for 1 h. The plate was then washed with PBS containing 0.05% Tween-20. Finally, TMB was added to each well; the enzymatic reaction was stopped after 30 min by addition of H2SO4 (100 μL, 2M). Absorbances were measured with a TECAN GENios (Swiss, TECAN) microplate reader using a wavelength of 450 nm. Three independent experiments were performed with each inhibitor to calculate average IC50 value and standard deviation (SD).
(§3) The BH3 analogous degrees of other 11 compounds were detected by using the experimental method as described above. The protein binding constant (binding constant in table 1) between them and Bcl-2 and Mcl-1 proteins were also on nM grade.

His-tagged Mcl-1 protein = His-tagged Mcl-1 protein (Homo sapiens, UniProt Q07820); assay: ELISA assay, competitive binding to Mcl-1 protein (biotin-Bim/streptavidin plate); conditions: 20 nM His-tagged Mcl-1, method calculates average IC50, read-out: Mcl-1 binding constants
Experimental: as §1, §2, §3

[1] = biological target: T1, interaction between Bcl-2 and Bax (Homo sapiens, UniProt P10415); assay: Intracellular FRET, Bcl-2-CFP/Bax-YFP in Hela cells; assay type: cell-based; conditions: for Time (time period after which the interaction between Bcl-2 and Bax was interfered): at the concentration given
T1 construct: expressed in transfected cells; host or cells: Hela cells
Experimental: 2 μg of Bcl-2-CFP and Bax-YFP plasmids were transfected separately or simultaneously into Hela cells by using calcium phosphate coprecipitation method, 24 hours later, the cells were inoculated in a 6-well plate (2×10^5 cells/well), and the compound 1 to be detected dissolved in DMSO was added there into until the final concentration (2, 5, 10 and 15 μM) was achieved. 24 hours later (please refer to FIG. 5); the cells were washed with PBS for three times. The fluorescence value was detected by GENIOS fluorescence enzyme-labelled meter (TECAN, Swiss). In time-dependent experiment, the transfected cells were inoculated in a 6-well plate, after that, 40 μM of the compound was added thereinto. 3, 6 and 24 hours later (FIG. 6), the fluorescence intensities were detected by plate reader. As for the cell group in which only Bcl-2-CFP plasmid was transfected, the values at 475 nm emission wave length and 433 nm excitation wave length were recorded. As for the cell group in which only Bax-YFP plasmid was transfected, the values at 527 nm emission wave length and 505 nm excitation wave length were recorded. As for the cell group in which Bcl-2-CFP and Bax-YFP plasmids were co-transfected, the values at 527 nm and 475 emission wave lengths and 433 nm excitation wave length were recorded. The ratio of fluorescence intensity at 527 nm and 475 nm emission wave lengths was FRET. The FRET for the control group in which the plasmid was solely transfected was set as 1.0. […] In the cotransfected cells, the FRET increased up to 2.0 due to the interaction of Bcl-2 protein and Bax protein, and that the interference to the interaction between the two proteins increased and FRET decreased with the increase of the drug concentration and time. The cellular vitality was detected by MTT method. When the concentration of the compound reached 1 μM, the interaction between Bcl-2 and Bax can be interfered after 2 hours, and the results appeared concentration-time dependent trend.
Wherein the concentration and time meant that the detected compound interfered with the interaction between Bcl-2 and Bax at the concentration for the time period.

[2] = test system: BAX shift towards the chondriosome; assay: Co-localization between Bax protein and chondriosome, Bax-YFP in MCF-7 cells; assay type: cell-based; conditions: for Doses (concentration at which the compound drove the BAX to shift towards the chondriosome): Bax-YFP/Mito Tracker Red; for Time (time period after which BAX shifted towards the chondriosome): at the concentration given
Experimental: 5 μg of Bax-YFP plasmid was transfected into MCF-7 cells by using calcium phosphate coprecipitation method, 24 hours later, the cells were inoculated in a 6-well plate (0.2×10^6 cells/well), and 10 μM of the compound 1 to be detected was added thereinto. 6 hours later, the cells were washed with PBS and hatched away from light with 50 nM Mito Tracker Red CMXRos (chondriosome specific probes; red) for 10 minutes. Then the cells were washed with PBS for three times, and the fluorescent image was scanned with Radiance2000 laser confocal microscopy (Bio-Rad, USA). Meanwhile, dual channel scanning was carried out, one channel was used to scan the green fluorescence of Bax-YFP, and the other channel was used to scan the red fluorescence of the CMXRos probe for indicating the chondriosome. […] When the Bax protein was localized on the chondriosome, the green and red fluorescence was superimposed into orange, as shown in FIG. 7.
Other 24 compounds were detected by the same experimental method as described above. […] Wherein the concentration and time meant that the detected compound simulated the BH3-only protein and driven the BAX to shift towards the chondriosome at the concentration for the time period.

MCF-7 cells = assay: Cytotoxicity by MTT, cells without plasmid transfection; assay type: cell-based; conditions: Homo sapiens, MCF7; MCF-7, MTT, 48 hours; read-out: IC50 value in untransfected cells
Experimental: (§4) 3 μg of BAX/BAK interfering plasmid was transfected into MCF-7 cells by using calcium phosphate coprecipitation method, 24 hours later, the cells were collected. The expressions after the BAX and BAK proteins interfered with RNA was detected by Western, and the cell groups without plasmid transfection were treated similarly and were set as the control group. The transfected cells were inoculated in a 96-well plate (1×10^5 cells/well), the control experiment of the cell group without plasmid transfection was carried out in parallel. The compound 1 to be detected was added thereinto according to the concentration gradient designed before the experiment. 48 hours later, the cellular vitality was detected by MTT. The experimental results were shown in FIG. 9, Gossypol as nonspecific BH3 analogue was treated in parallel.
(§5) Other 24 compounds were also detected by the same experimental method as described above, the differences of IC50 values between the transfected cells and the without plasmid transfection cells were compared.

[3] = test system: MCF-7 cells transfected with BAX/BAK interfering plasmid; assay: Cytotoxicity by MTT, cells transfected with BAX/BAK interfering plasmid; assay type: cell-based; conditions: Homo sapiens, MCF7; MCF-7 with BAX/BAK interfering plasmid, MTT, 48 hours
Experimental: as §4, §5

Bcl-2 = assay: Western blotting, semiquantitative analysis of Bcl-2 protein bands; assay type: cell-based; conditions: control = 1, tumor cells
Experimental: (§6) The interest protein was detected by the corresponding antibody. The expression of the interest protein in the cells was detected by horseradish peroxidase-labeled secondary antibodies in combination with ECL coloration method. […] The concentration of the protein bands in the Western images were carried out semiquantitative analysis and normalization treatment with KODAK Gel Logic 1500 imaging system software.

Mcl-1 = assay: Western blotting, semiquantitative analysis of Mcl-1 protein bands; assay type: cell-based; conditions: control = 1, tumor cells
Experimental: as §6

GST-Bcl-2 protein = GST-Bcl-2 protein (Homo sapiens, UniProt P10415); assay: Fluorescence polarization assay, competition with FAM-Bid peptide for Bcl-2; conditions: GST-Bcl-2 40 nM, FAM-Bid 5 nM, 4 hours of incubation, read-out: Bcl-2 binding constants
Experimental: (§7) A Bid BH3 peptide (amino acids: 79-99: […]) having 21 amino acids was synthesized and marked with 6-carboxyfluorescein N-succinimidyl ester (FAM) as fluorescent tag (FAM-Bid) at the N-terminal. The reaction system used in the competitive binding experiment was GST-Bcl-2 protein (40 nM) or Mcl-1 protein, which was dissolved in the reaction buffer (100 mM K3PO4, pH 7.5; 100 μg/ml bovine γ albumin; 0.02% sodium azide) together with FAM-Bid polypeptide (5 nM). In a 96-well plate, 100 µL of the reaction system was added into each well. Then 1 μL different concentration of compound 13 mother solution to be detected dissolved in DMSO was added there into until the final concentration met the experimental design requirements. Meanwhile, two control groups were established, one with the reaction system only containing Bcl-2 or Mcl-1 and FAM-Bid (equivalent to 0% inhibition rate), the other with the reaction system only containing FAM-Bid peptide. After 4 hours of incubation, the 96-well plate was detected by enzyme-labelled meter. The fluorescent polarization value (mP) was tested at […]. Ki value was deduced according to calculation formula.
(§8) The BH3 analogous degrees of other 12 compounds were detected by using the experimental method as described above.

Mcl-1 protein = Mcl-1 protein (Homo sapiens, UniProt Q07820); assay: Fluorescence polarization assay, competition with FAM-Bid peptide for Mcl-1; conditions: FAM-Bid 5 nM, 4 hours of incubation, read-out: Mcl-1 binding constants
Experimental: as §7, §8

Sequence of His-tagged Mcl-1 protein (Q07820 whole entry): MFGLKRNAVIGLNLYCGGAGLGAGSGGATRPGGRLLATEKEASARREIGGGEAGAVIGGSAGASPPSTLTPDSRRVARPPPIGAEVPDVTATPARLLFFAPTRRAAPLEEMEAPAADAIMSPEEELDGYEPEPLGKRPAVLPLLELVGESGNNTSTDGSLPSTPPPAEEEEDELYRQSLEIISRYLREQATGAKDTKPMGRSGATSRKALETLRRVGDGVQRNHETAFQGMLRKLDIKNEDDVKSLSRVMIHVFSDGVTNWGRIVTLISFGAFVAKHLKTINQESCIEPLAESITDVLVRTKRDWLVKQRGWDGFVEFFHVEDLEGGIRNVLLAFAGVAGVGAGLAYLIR
Sequence of Bcl-2 protein (P10415 whole entry, species assumed): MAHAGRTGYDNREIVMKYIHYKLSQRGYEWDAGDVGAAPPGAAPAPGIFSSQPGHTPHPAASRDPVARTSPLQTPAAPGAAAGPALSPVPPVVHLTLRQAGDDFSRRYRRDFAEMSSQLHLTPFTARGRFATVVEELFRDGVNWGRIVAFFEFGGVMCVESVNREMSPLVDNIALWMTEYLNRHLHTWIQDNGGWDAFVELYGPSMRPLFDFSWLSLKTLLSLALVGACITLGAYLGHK
T1 sequence (P10415 whole entry): as the sequence (P10415 whole entry, species assumed) above
Sequence of Mcl-1 protein (Q07820 whole entry, species assumed): as the sequence (Q07820 whole entry) above
Sequence of GST-Bcl-2 protein (P10415 whole entry): as the sequence (P10415 whole entry, species assumed) above

SMILES | IC50 (Bcl-2 protein) | IC50 (His-tagged Mcl-1 protein) | Doses (concentration at which the compound interfered with the interaction between Bcl-2 and Bax) [1] | Time (time period after which the interaction between Bcl-2 and Bax was interfered) [1] | Doses (concentration at which the compound drove the BAX to shift towards the chondriosome) [2] | Time (time period after which BAX shifted towards the chondriosome) [2] | IC50 (MCF-7 cells) | IC50 [3] | concentration of the protein bands (semiquantitative, normalized), Bcl-2 (Bcl-2; 6 h) | concentration of the protein bands (semiquantitative, normalized), Bcl-2 (Bcl-2; 12 h) | concentration of the protein bands (semiquantitative, normalized), Bcl-2 (Bcl-2; 18 h) | concentration of the protein bands (semiquantitative, normalized), Bcl-2 (Bcl-2; 24 h) | concentration of the protein bands (semiquantitative, normalized), Mcl-1 (Mcl-1; 2 h) | concentration of the protein bands (semiquantitative, normalized), Mcl-1 (Mcl-1; 6 h) | melting point | Ki (GST-Bcl-2 protein) | Ki (Mcl-1 protein)
O=C1N=C2C(=C1NCCCc1ccccc1)c1ccc(N3CCSCC3)c3cccc2c13 [Compound 10, 9-(3-Phenyl-propylamino)-3-thiomorpholin-4-yl-acenaphtho[1,2-b]pyrrol-8-one] | 17 nM | 5 nM | 0.1 µM | 2 h | 0.2 µM | 1 h | 500 nM | > 50000 nM | 0.99 | 0.99 | 0.45 | 0.12 | 0.53 | 0.21 | 265 to 266 °C | – | –
CCCCNC1=C2C(=NC1=O)c1cccc3c(Oc4ccc(C(C)C)cc4)ccc2c13 [Compound 11, 9-Butylamino-3-(4-isopropyl-phenoxy)-acenaphtho[1,2-b]pyrrol-8-one] | 112 nM | 46 nM | 0.3 µM | 2 h | 0.9 µM | 3 h | 4200 nM | > 50000 nM | 0.99 | 0.99 | 0.57 | 0.22 | 0.70 | 0.34 | 243 to 244 °C | – | –
CC(C)c1ccc(Oc2ccc3c4c(cccc24)C2=NC(=O)C(NCCCc4ccccc4)=C23)cc1 [Compound 12, 3-(4-Isopropyl-phenoxy)-9-(3-phenyl-propylamino)-acenaphtho[1,2-b]pyrrol-8-one] | 9 nM | 15 nM | 0.2 µM | 1 h | 0.3 µM | 2 h | 2900 nM | > 50000 nM | 0.99 | 0.99 | 0.45 | 0.16 | 0.66 | 0.28 | 275 to 276 °C | – | –
CC(C)Cc1ccc(Oc2ccc3c4c(cccc24)C2=C(C#N)C(=O)N=C23)cc1 [Compound 16, 4-(4-Isobutyl-phenoxy)-8-oxo-8H-acenaphtho[1,2-b]pyrrole-9-carbonitrile] | – | – | 0.5 µM | 3 h | 4.0 µM | 3 h | 8500 nM | > 50000 nM | – | – | – | – | – | – | – | 210 nM | 56 nM
